{"source": "patent US8778889B2", "about": "“Antimicrobial decapeptide oral hygiene treatment” (The United States of America as represented by the …, priority 2003, dated 2014)", "key": {"A. baumannii WRAMC #15": {"system": "A. baumannii WRAMC #15", "format": "cell-based, Acinetobacter baumannii", "description": "(§1) As shown in the table below, many drug-resistant pathogens including multidrug-resistant Acinetobacter baumannii (clinical isolates) were susceptible to the bactericidal activity of the newly developed antimicrobial peptides. […] This is shown by their lower MIC and MBC against a number of antibiotic-resistant bacteria including methicillin-resistant Staphylococcus aureus, vancomycin-resistant Enterococci, and multidrug-resistant Acinetobacter baumannii. Many of these resistant strains are involved in nosocomial infections, which affect the immunocompromised and the elderly individuals with weakened defenses. The tests were done in a broth microdilution assay as described in our earlier publication (Concannon et al., 2003)."}, "MRSA ATCC #33591": {"system": "MRSA ATCC #33591", "format": "cell-based, Staphylococcus aureus", "description": "as §1"}, "MRSA ATCC #43300": {"system": "MRSA ATCC #43300", "format": "cell-based, Staphylococcus aureus", "description": "as §1"}, "MRSA VVRAMC #10": {"system": "MRSA VVRAMC #10", "format": "cell-based, Staphylococcus aureus", "description": "as §1"}, "MRSA VVRAMC #1": {"system": "MRSA VVRAMC #1", "format": "cell-based, Staphylococcus aureus", "description": "as §1"}, "MRSA WRAMC #12": {"system": "MRSA WRAMC #12", "format": "cell-based, Staphylococcus aureus", "description": "as §1"}, "MRSA WRAMC #9": {"system": "MRSA WRAMC #9", "format": "cell-based, Staphylococcus aureus", "description": "as §1"}, "[1]": {"protocol": "The chewing gum formulations were prepared following a procedure described previously. The gum base was heated at a temperature between 50 and 60° C. for melting. When the gum base was of the proper fluid consistency, the KSL was added as a fine powder along with the other components. The temperature was kept constant while mixing the components with the gum base in a mortar. After mixing, the homogenous chewing gum mixture was extruded, cut into squares of approximate shape and size and hardened at room temperature overnight. The composition of the gum was as follows: 550 mg of gum base, 420 mg of sorbitol, 10 mg of mannitol, 10 mg of saccharin, and 10, 20 or 30 mg of KSL (total weight: approximately 1 g). In vitro release study of KSL from chewing gums was carried out using an in vitro chewing release apparatus consisting of two modules (AB FIA, Lund, Sweden) (FIG. 1). Each module consists of a thermostatted glass cell in which two vertically oriented pistons holding an upper and a lower chewing plate are mounted. The cells were filled with 40 ml of artificial saliva and the chewing gum was loaded onto the lower chewing surface. […] The released amount of KSL was determined by RP-HPLC."}, "[2]": {"system": "oral biofilms formed on saliva-coated HA disks by salivary bacteria", "assay": "In vitro plaque assay, viable counts of oral biofilms on saliva-coated HA disks", "format": "cell-based, human salivary bacteria", "settings": "KSL 200 μg/ml", "description": "In conjunction with the dual flow cell system, a modification of an in vitro plaque model of biofilm formation described by Guggenheim et al. (Guggenheim et al., 2001) was used to determine the effects of tested antimicrobials and other agents on developed oral biofilms (see Appendix I for details). HA disks (Clarkson, south Williamsport, Pa.) were employed as substrates for salivary bacteria to form biofilms.\nTo determine the inhibitory activity of KSL on developed oral biofilms, disks containing 45 h-old biofilms were transferred to wells containing aqueous KSL (200 μg/ml; 1 ml/well). Following 30 min exposure at 37° C., disks were rinsed with 3×1 ml of saline and transferred to sterile 15 ml polypropylene tubes containing 1 ml PBS. Biofilm cells adherent to surfaces (after treatment) were recovered by sonicating for 2 min at 5 watts with a Microson ultrasonic cell disrupter equipped with a cup horn (Misonix Inc., Farmingdale, N.Y.). Settings including the time interval used in the sonication were predetermined empirically to yield maximal recovery of adherent biofilm cells.\nThe effect of KSL on disrupted biofilms was assessed by recovering biofilm cells from HA disks (45 h-old biofilms) through sonication as described above. The detached biofilm cells (in sterile dH2O) were mixed with an equal volume of aqueous KSL to obtain a final peptide concentration of 200 μg/ml, and the reaction mixtures incubated at 37° C. for 30 min. The interactions of KSL and suspended biofilm cells were terminated by washing in PBS.\nTo determine the effect of the surface-active agent (benzalkonium chloride; Sigma, St. Louis, Mo.) in promoting the killing of intact biofilms by KSL, 66 h-old oral biofilms were treated with KSL (200 μg/ml), benzalkonium chloride (0.001%), or a combination of the two agents, followed by viable counts determinations and confocal laser scanning microscopy of treated samples.\nViable counts of biofilm cells derived from treated disks or disrupted biofilms were determined by spiral plating serially diluted samples onto blood agar plates. Distilled water or 0.12% aqueous chlorhexidine digluconate (Sigma) was used as the negative or positive control, respectively. The 45 h-old biofilms were exposed to chlorhexidine for 1 min, and to water for 30 min at 37° C.\nIn this assay, HA disks (Clarkson Chromatography Products, Inc., South Williamsport, Pa.) were used as surfaces on which plaque formation can occur. Before use, sterile HA disks were conditioned in the wells of a 24-well microtiter plate (Becton Dickinson, Franklin Lakes, N.J.) containing 50% sterile saliva by incubating at room temperature for a minimum of two hours on a rotating platform at 95 rpm. The saliva was removed and each well inoculated with isolated salivary bacteria at a bacterial cell concentration of 1.0×10^7 cells/ml in sterile 50% whole saliva. After two hours of incubation (with rotation) at 37° C. to allow the bacteria to adhere to surfaces, unattached bacteria were removed and replaced with supplemented saliva-based medium. The plates were incubated with rotation at 37° C. for 45 h (with medium replaced three times), or 66 h (with medium replaced five times) in a CO2 incubator prior to treatments, and the recovery of biofilm cells from treated or untreated disks.\nIn these studies, KSL or KSL-W was used at 200 μg/ml, whereas Bzl and CPC were used at 0.001% and 0.0025%, respectively. […]"}}, "note": "Ends that are not written are not given here.", "data": [{"substance": "KKVVFKVKFK-NH2 [KSL, Lys-Lys-Val-Val-Phe-Lys-Val-Lys-Phe-Lys-NH2]", "values": [{"measurement": "MBC", "setting": "A. baumannii WRAMC #15", "value": ">200", "unit": "µg/mL"}, {"measurement": "MIC", "setting": "A. baumannii WRAMC #15", "value": 100, "unit": "µg/mL"}, {"measurement": "MBC", "setting": "MRSA ATCC #33591", "value": ">200", "unit": "µg/mL"}, {"measurement": "MIC", "setting": "MRSA ATCC #33591", "value": 200, "unit": "µg/mL"}, {"measurement": "MBC", "setting": "MRSA ATCC #43300", "value": 200, "unit": "µg/mL"}, {"measurement": "MIC", "setting": "MRSA ATCC #43300", "value": 100, "unit": "µg/mL"}, {"measurement": "MBC", "setting": "MRSA VVRAMC #10", "value": ">200", "unit": "µg/mL"}, {"measurement": "MIC", "setting": "MRSA VVRAMC #10", "value": ">200", "unit": "µg/mL"}, {"measurement": "MBC", "setting": "MRSA VVRAMC #1", "value": ">200", "unit": "µg/mL"}, {"measurement": "MIC", "setting": "MRSA VVRAMC #1", "value": ">200", "unit": "µg/mL"}, {"measurement": "MBC", "setting": "MRSA WRAMC #12", "value": ">200", "unit": "µg/mL"}, {"measurement": "MIC", "setting": "MRSA WRAMC #12", "value": ">200", "unit": "µg/mL"}, {"measurement": "MBC", "setting": "MRSA WRAMC #9", "value": ">200", "unit": "µg/mL"}, {"measurement": "MIC", "setting": "MRSA WRAMC #9", "value": ">200", "unit": "µg/mL"}, {"measurement": "stability of KSL during the gum manufacturing process (HPLC of released KSL)", "setting": "[1]", "value": "remains stable"}, {"measurement": "reduction of viability, disrupted biofilms, versus dH2O-treated control cells", "setting": "[2]; 45 h-old biofilms disrupted by sonication, 30 min, 37° C.", "value": 1.8, "unit": "log"}, {"measurement": "effect on viability of intact biofilms compared to water treatment", "setting": "[2]; 66 h-old oral biofilms, benzalkonium chloride 0.001%", "value": "less effect on the viability"}, {"measurement": "reduction of viable counts, intact biofilms", "setting": "[2]; intact 45-h-old biofilms, 30 min, 37° C.", "value": "small reduction of viable counts"}]}]}
